Experimental data published in patent US20250179103A1, “6-OXODECAHYDROPYRROLO[1,2-A][1,5]DIAZOCINE AND 6-OXODECAHYDRO-4H-PYRROLO[2,1-D][1,5]THIAZOCINE DERIVATIVES AS STAT3 AND STAT6 MODULATORS FOR THE TREATMENT OF CANCER AND INFLAMMATORY CONDITIONS” (Recludix Pharma, Inc., priority 2022, published 2025).

What was measured:
[1] = target: T1, Recombinant STAT3 protein (STAT3(G127-I722)) (Homo sapiens, UniProt P40763); experiment: STAT3 Fluorescence Polarization (FP) Assay; type: binding; conditions: STAT3(G127-I722) 25 nM, probe 5-FAM-GpYLPQTV-NH2 2 nM, 45-minute incubation
T1 construct: Recombinant STAT3 protein (STAT3(G127-I722))
T1 sequence (P40763 127-722): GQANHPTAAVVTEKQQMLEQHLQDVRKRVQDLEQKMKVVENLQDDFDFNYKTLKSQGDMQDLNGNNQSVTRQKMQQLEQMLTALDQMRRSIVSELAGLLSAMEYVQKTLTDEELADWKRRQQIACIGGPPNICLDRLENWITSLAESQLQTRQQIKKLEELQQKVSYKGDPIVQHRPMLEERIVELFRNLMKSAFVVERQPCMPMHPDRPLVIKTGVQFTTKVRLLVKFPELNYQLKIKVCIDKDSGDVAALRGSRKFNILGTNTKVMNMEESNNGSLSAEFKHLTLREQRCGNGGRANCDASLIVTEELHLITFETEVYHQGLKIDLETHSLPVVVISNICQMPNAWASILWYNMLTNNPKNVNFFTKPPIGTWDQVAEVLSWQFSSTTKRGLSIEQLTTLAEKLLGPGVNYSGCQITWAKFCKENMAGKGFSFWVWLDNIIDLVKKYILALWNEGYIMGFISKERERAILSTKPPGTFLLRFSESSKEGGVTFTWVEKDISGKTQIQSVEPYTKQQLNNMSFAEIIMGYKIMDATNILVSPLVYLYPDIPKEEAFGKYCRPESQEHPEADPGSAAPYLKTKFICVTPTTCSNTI
Summary of the method: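 STAT3(G127-I722), 25 nM, was mixed with 2 nM 5-FAM-GpYLPQTV-NH2 probe in HEPES pH 7.4 buffer with 1% DMSO and serially diluted compound. FP (mP) was read after 45 min at room temperature. IC50 came from nonlinear regression.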

[2] = target: T2, Recombinant STAT6 protein (STAT6(W123-T658)) (Homo sapiens, UniProt P42226); experiment: STAT6 Fluorescence Polarization (FP) Assay; type: binding; conditions: STAT6(W123-T658) 250 nM, probe 5-FAM-ApYKPFQDLI-NH2 2 nM, 45-minute incubation
T2 construct: Recombinant STAT6 protein (STAT6(W123-T658))
T2 sequence (P42226 123-658): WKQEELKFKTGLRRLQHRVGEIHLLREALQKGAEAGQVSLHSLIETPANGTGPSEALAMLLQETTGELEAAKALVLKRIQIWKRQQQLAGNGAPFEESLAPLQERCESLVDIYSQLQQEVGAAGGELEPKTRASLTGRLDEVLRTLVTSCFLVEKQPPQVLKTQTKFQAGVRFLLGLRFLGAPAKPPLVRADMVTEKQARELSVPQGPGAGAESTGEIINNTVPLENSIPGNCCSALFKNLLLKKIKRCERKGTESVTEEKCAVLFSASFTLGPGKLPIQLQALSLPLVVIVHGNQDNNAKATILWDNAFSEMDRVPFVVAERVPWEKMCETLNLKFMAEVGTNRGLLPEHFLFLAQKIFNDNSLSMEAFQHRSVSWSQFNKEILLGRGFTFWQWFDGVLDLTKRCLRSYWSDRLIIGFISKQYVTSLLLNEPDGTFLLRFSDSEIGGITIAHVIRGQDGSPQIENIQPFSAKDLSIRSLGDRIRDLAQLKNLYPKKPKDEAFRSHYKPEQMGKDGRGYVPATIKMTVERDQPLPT
Summary of the method: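 Displacement of a fluorescent phosphotyrosine peptide (5-FAM-ApYKPFQDLI-NH2, 2 nM) from STAT6(W123-T658) (250 nM), 1% DMSO, pH 7.4 HEPES buffer. After 45 min at room temperature, polarization (mP) was plotted versus log compound concentration and fitted by nonlinear regression to give IC50.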

**Q.** With N#Cc1ccccc1-c1ccc(NC(=O)[C@@H]2CC[C@@H]3CCN(C(=O)Cc4ccccc4)C[C@H](NC(=O)c4cc5cc(C(F)(F)P(=O)(O)O)ccc5[nH]4)C(=O)N32)c(F)c1 [Compound 276, ((2-(((5S,8S,10aR)-8-((2′-cyano-3-fluoro-[1,1′-biphenyl]-4-yl)carbamoyl)-6-oxo-3-(2-phenylacetyl)decahydropyrrolo[1,2-a][1,5]diazocin-5-yl)carbamoyl)-1H-indol-5-yl)difluoromethyl)phosphonic acid] as the compound, how does the IC50 [1] read?
**A.** 1 to 10 µM

**Q.** What about the IC50 [2] of the same compound?
**A.** 0.3 to 3 µM

**Q.** O=C(N[C@H]1CN(CC(F)(F)F)CC[C@H]2CC[C@@H](C(=O)N3CC(C(=O)N4CCOCC4)C3)N2C1=O)c1cc2cc(C(F)(F)P(=O)(O)O)ccc2s1 [Compound 277, (difluoro(2-(((5S,8S,10aR)-8-(3-(morpholine-4-carbonyl)azetidine-1-carbonyl)-6-oxo-3-(2,2,2-trifluoroethyl)decahydropyrrolo[1,2-a][1,5]diazocin-5-yl)carbamoyl)benzo[b]thiophen-5-yl)methyl)phosphonic acid] was tested. Which IC50 [1] did it give?
**A.** ≤ 0.1 µM

**Q.** What about the IC50 [2] of the same compound?
**A.** 3 to 30 µM

**Q.** CCN1CC[C@H]2CC[C@@H](C(=O)N3CC(C(=O)N4CCOCC4)C3)N2C(=O)[C@@H](NC(=O)c2cc3cc(C(F)(F)P(=O)(O)O)ccc3s2)C1 [Compound 278, ((2-(((5S,8S,10aR)-3-ethyl-8-(3-(morpholine-4-carbonyl)azetidine-1-carbonyl)-6-oxodecahydropyrrolo[1,2-a][1,5]diazocin-5-yl)carbamoyl)benzo[b]thiophen-5-yl)difluoromethyl)phosphonic acid] was tested. Which IC50 [1] did it give?
**A.** 0.1 to 1 µM

**Q.** What about the IC50 [2] of the same compound?
**A.** 3 to 30 µM

**Q.** CC(=O)N1CC[C@H]2CC[C@@H](C(=O)N3CC(c4ccn(C)c(=O)c4)CC34CC4)N2C(=O)[C@@H](NC(=O)c2ccc3ccc(C(F)P(=O)(O)O)cc3c2)C1 (stereo partly drawn) [Compound 354, ((7-(((5S,8S,10a R)-3-acetyl-8-(6-(1-methyl-2-oxo-1,2-dihydropyridin-4-yl)-4-azaspiro[2.4]heptane-4-carbonyl)-6-oxodeca-hydropyrrolo [1,2-a][1,5]diazocin-5-yl)carbamoyl)naphthalen-2-yl)fluoromethyl) phosphonic acid] was tested. Which IC50 [1] did it give?
**A.** > 10 µM

**Q.** And the IC50 [2]?
**A.** ≤ 0.3 µM

**Q.** How did the IC50 [1] turn out when CC(=O)N1CC[C@H]2CC[C@@H](C(=O)N3CCC(c4cccnc4)C3)N2C(=O)[C@@H](NC(=O)c2ccc3ccc(C(F)P(=O)(O)O)cc3c2)C1 (stereo partly drawn) [Compound 355, ((7-(((5S,8S,10a R)-3-acetyl-6-oxo-8-(3-(pyridin-3-yl)pyrrolidine-1-carbonyl)decahydro-pyrrolo [1,2-a][1,5]diazocin-5-yl)carbamoyl)naphthalen-2-yl)fluoromethyl) phosphonic acid] was run?
**A.** 1 to 10 µM

**Q.** And the IC50 [2]?
**A.** 0.3 to 3 µM

**Q.** How did the IC50 [1] turn out when CC(=O)N1CC[C@H]2CC[C@@H](C(=O)N3CC(c4ccn(C)c(=O)c4)CC34CC4)N2C(=O)[C@@H](NC(=O)c2ccc3ccc(CP(=O)(O)O)cc3c2)C1 (stereo partly drawn) [Compound 356, ((7-(((5S,8S,10a R)-3-acetyl-8-(6-(1-methyl-2-oxo-1,2-dihydropyridin-4-yl)-4-azaspiro[2.4]heptane-4-carbonyl)-6-oxodeca-hydropyrrolo [1,2-a][1,5]diazocin-5-yl)carbamoyl)naphthalen-2-yl)methyl) phosphonic acid] was run?
**A.** > 10 µM

**Q.** And the IC50 [2]?
**A.** 0.3 to 3 µM

**Q.** How did the IC50 [1] turn out when O=C(N[C@H]1CN(C(=O)c2ncn3ccccc23)CC[C@H]2CC[C@@H](C(=O)N3CCOCC3)N2C1=O)c1ccc2ccc(C(F)P(=O)(O)O)cc2c1 (stereo partly drawn) [Compound 357, (fluoro(7-(((5S,8S,10aR)-3-(imidazo[1,5-a]pyridine-1-carbonyl)-8-(morpholine-4-carbonyl)-6-oxodecahydro-pyrrolo[1,2-a][1,5]diazocin-5-yl)carbamoyl)naphthalen-2-yl)methyl)phosphonic acid] was run?
**A.** > 10 µM

**Q.** What about the IC50 [2] of the same compound?
**A.** 0.3 to 3 µM

**Q.** O=C(N[C@H]1CN(C(=O)c2noc3c2CCCC3)CC[C@H]2CC[C@@H](C(=O)N3CCOCC3)N2C1=O)c1ccc2ccc(C(F)P(=O)(O)O)cc2c1 (stereo partly drawn) [Compound 358, (fluoro(7-(((5S,8S,10aR)-8-(morpholine-4-carbonyl)-6-oxo-3-(4,5,6,7-tetra-hydrobenzo[d]isoxazole-3-carbonyl)decahydropyrrolo [1,2-a][1,5]diazocin-5-yl)carbamoyl)naphthalen-2-yl)methyl)phosphonic acid] was tested. Which IC50 [1] did it give?
**A.** > 10 µM

**Q.** What about the IC50 [2] of the same compound?
**A.** 0.3 to 3 µM

**Q.** How did the IC50 [1] turn out when O=C(N[C@H]1CN(C(=O)c2cc3ncccn3n2)CC[C@H]2CC[C@@H](C(=O)N3CCOCC3)N2C1=O)c1ccc2ccc(C(F)P(=O)(O)O)cc2c1 (stereo partly drawn) [Compound 359, (fluoro(7-(((5S,8S,10aR)-8-(morpholine-4-carbonyl)-6-oxo-3-(pyrazolo[1,5-a]pyrimidine-2-carbonyl)decahydropyrrolo[1,2-a] [1,5]diazocin-5-yl)carbamoyl)naphthalen-2-yl)methyl)phosphonic acid] was run?
**A.** > 10 µM

**Q.** What about the IC50 [2] of the same compound?
**A.** 0.3 to 3 µM

**Q.** O=C(N[C@H]1CN(C(=O)c2noc3c2COCC3)CC[C@H]2CC[C@@H](C(=O)N3CCOCC3)N2C1=O)c1ccc2ccc(C(F)P(=O)(O)O)cc2c1 (stereo partly drawn) [Compound 360, ((7-(((5S,8S,10aR)-3-(6,7-dihydro-4H-pyrano[3,4-d]isoxazole-3-carbonyl)-8-(morpholine-4-carbonyl)-6-oxodecahydropyrrolo [1,2-a][1,5]diazocin-5-yl)carbamoyl)naphthalen-2-yl)fluoromethyl) phosphonic acid] was tested. Which IC50 [1] did it give?
**A.** > 10 µM

**Q.** What about the IC50 [2] of the same compound?
**A.** 0.3 to 3 µM

**Q.** For CCCS(=O)(=O)N1CC[C@H]2CC[C@@H](C(=O)N3CCOCC3)N2C(=O)[C@@H](NC(=O)c2ccc3ccc(C(F)P(=O)(O)O)cc3c2)C1 (stereo partly drawn) [Compound 361, (fluoro(7-(((5S,8S,10aR)-8-(morpholine-4-carbonyl)-6-oxo-3-(propylsulfonyl)decahydropyrrolo[1,2-a] [1,5]diazocin-5-yl)carbamoyl)naphthalen-2-yl)methyl)phosphonic acid], which IC50 [1] is on record?
**A.** > 10 µM

**Q.** And the IC50 [2]?
**A.** 3 to 30 µM

**Q.** What does the source list for COc1ccc2onc(C(=O)N3CC[C@H]4CC[C@@H](C(=O)N5CCOCC5)N4C(=O)[C@@H](NC(=O)c4ccc5ccc(C(F)P(=O)(O)O)cc5c4)C3)c2c1 (stereo partly drawn) [Compound 362, (fluoro(7-(((5S,8S,10aR)-3-(5-methoxybenzo[d]isoxazole-3-carbonyl)-8-(morpholine-4-carbonyl)-6-oxodecahydropyrrolo [1,2-a][1,5]diazocin-5-yl)carbamoyl)naphthalen-2-yl)methyl)phosphonic acid]?
**A.** IC50 [1]: > 10 µM; IC50 [2]: ≤ 0.3 µM

**Q.** Which results are given for COc1ccc2c(C(=O)N3CC[C@H]4CC[C@@H](C(=O)N5CCOCC5)N4C(=O)[C@@H](NC(=O)c4ccc5ccc(C(F)P(=O)(O)O)cc5c4)C3)noc2c1 (stereo partly drawn) [Compound 363, (fluoro(7-(((5S,8S,10aR)-3-(6-methoxybenzoyl[d]isoxazole-3-carbonyl)-8-(morpholine-4-carbonyl)-6-oxodecahydropyrrolo [1,2-a][1,5]diazocin-5-yl)carbamoyl)naphthalen-2-yl)methyl)phosphonic acid]?
**A.** IC50 [1]: > 10 µM; IC50 [2]: ≤ 0.3 µM

**Q.** Which IC50 [1] does the source give for O=C(N[C@H]1CN(C(=O)c2ncn3c2CCCC3)CC[C@H]2CC[C@@H](C(=O)N3CCOCC3)N2C1=O)c1ccc2ccc(C(F)P(=O)(O)O)cc2c1 (stereo partly drawn) [Compound 364, (fluoro(7-(((5S,8S,10aR)-8-(morpholine-4-carbonyl)-6-oxo-3-(5,6,7,8-tetrahydroimidazo[1,5-a]pyridine-1-carbonyl)decahydropyrrolo[1,2-a][1,5]diazocin-5-yl)carbamoyl)naphthalen-2-yl)methyl)phosphonic acid] here?
**A.** > 10 µM

**Q.** And the IC50 [2]?
**A.** 0.3 to 3 µM

**Q.** For O=C(N[C@H]1CN(C(=O)c2noc3ccc(Cl)cc23)CC[C@H]2CC[C@@H](C(=O)N3CCOCC3)N2C1=O)c1ccc2ccc(C(F)P(=O)(O)O)cc2c1 (stereo partly drawn) [Compound 365, ((7-(((5S,8S,10aR)-3-(5-chlorobenzo[d]isoxazole-3-carbonyl)-8-(morpholine-4-carbonyl)-6-oxodecahydro-pyrrolo[1,2-a][1,5]diazocin-5-yl)carbamoyl)naphthalen-2-yl)fluoromethyl) phosphonic acid], which IC50 [1] is on record?
**A.** > 10 µM

**Q.** What about the IC50 [2] of the same compound?
**A.** ≤ 0.3 µM

**Q.** What does the source list for Cc1ccc2cc(C(=O)N3CC[C@H]4CC[C@@H](C(=O)N5CCOCC5)N4C(=O)[C@@H](NC(=O)c4ccc5ccc(C(F)P(=O)(O)O)cc5c4)C3)cc(Cl)c2n1 (stereo partly drawn) [Compound 366, ((7-(((5S,8S,10aR)-3-(8-chloro-2-methyl-quinoline-6-carbonyl)-8-(morpholine-4-carbonyl)-6-oxodecahydropyrrolo [1,2-a][1,5]diazocin-5-yl)carbamoyl)naphthalen-2-yl)fluoromethyl) phosphonic acid]?
**A.** IC50 [1]: > 10 µM; IC50 [2]: 0.3 to 3 µM
